Results from article PMC5413348, “Structure of Fam20A reveals a pseudokinase featuring a unique disulfide pattern and inverted ATP-binding” (eLife, 2017).
Substitutions are numbered along the chain they refer to. Where two headings read alike, the source gives them in different places.

Legend:
[1] = target: T1, Fam20A (Homo sapiens, UniProt Q96MK3); experiment: thermal stability shift assay (SYPRO Orange), dTm vs concentration fit; type: binding; settings: 20 mM HEPES pH 7.5, 100 mM NaCl
T1 construct: residues 69-529; secreted from Hi5 insect cells; N-terminal 6xHis-SUMO tag removed by TEV protease; dimer in crystal, concentration-dependent dimer/oligomer in solution
T1 sequence (Q96MK3 69-529): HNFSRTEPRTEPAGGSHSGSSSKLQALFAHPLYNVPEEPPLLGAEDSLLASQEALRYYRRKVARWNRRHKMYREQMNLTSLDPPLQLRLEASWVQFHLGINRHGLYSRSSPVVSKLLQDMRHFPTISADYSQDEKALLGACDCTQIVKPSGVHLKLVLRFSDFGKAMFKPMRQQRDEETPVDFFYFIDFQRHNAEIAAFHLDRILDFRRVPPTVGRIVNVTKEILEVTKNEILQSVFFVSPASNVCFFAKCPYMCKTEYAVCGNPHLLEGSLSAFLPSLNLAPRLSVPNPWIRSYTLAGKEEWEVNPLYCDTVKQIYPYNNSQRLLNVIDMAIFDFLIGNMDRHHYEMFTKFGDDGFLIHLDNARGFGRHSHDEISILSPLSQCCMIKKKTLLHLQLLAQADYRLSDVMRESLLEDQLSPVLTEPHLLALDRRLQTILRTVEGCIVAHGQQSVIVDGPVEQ

[2] = target: T2, Fam20A (Homo sapiens, UniProt Q96MK3, K223A); experiment: thermal stability shift assay (SYPRO Orange); type: binding; settings: 100 μM ATP; 20 mM HEPES pH 7.5, 100 mM NaCl
T2 construct: residues 69-529; secreted from Hi5 insect cells; N-terminal 6xHis-SUMO tag removed by TEV protease; dimer in crystal, concentration-dependent dimer/oligomer in solution
T2 sequence (Q96MK3 69-529 K223A): T1 sequence (Q96MK3 69-529) with K155A

[3] = target: T3, Fam20A (Homo sapiens, UniProt Q96MK3, D430A); experiment: thermal stability shift assay (SYPRO Orange); type: binding; settings: 100 μM ATP; 20 mM HEPES pH 7.5, 100 mM NaCl
T3 construct: residues 69-529; secreted from Hi5 insect cells; N-terminal 6xHis-SUMO tag removed by TEV protease; dimer in crystal, concentration-dependent dimer/oligomer in solution
T3 sequence (Q96MK3 69-529 D430A): T1 sequence (Q96MK3 69-529) with D362A

[4] = target: T1, Fam20A; experiment: thermal stability shift assay (SYPRO Orange); type: binding; settings: 10 μM nucleotide; no metal ions; 20 mM HEPES pH 7.5, 100 mM NaCl
[5] = target: the molecule itself; experiment: SEC; 1 mg or 100 µg purified Fam20A (both in 500 µl) on Superdex 200 increase 10/300 GL, 20 mM HEPES, pH 7.5, 100 mM NaCl

## Nc1ncnc2c1ncn2[C@@H]1O[C@H](COP(=O)(O)OP(=O)(O)O)[C@@H](O)[C@H]1O [ADP]
[1]; no cations
  Kd: Fam20A prefers binding ATP over ADP (Figure 2D)

## Nc1ncnc2c1ncn2[C@@H]1O[C@H](COP(=O)(O)OP(=O)(O)OP(=O)(O)O)[C@@H](O)[C@H]1O [ATP]
[2]
  Tm: with Ala has little effect on the ability of Fam20A to bind ATP
[3]
  Tm: with Ala has little effect on the ability of Fam20A to bind ATP
[1]; no divalent cations, inverted orientation in crystal, read-out: Kd^app
  Kd: 3 µM

## Nc1ccn([C@@H]2O[C@H](COP(=O)(O)OP(=O)(O)OP(=O)(O)O)[C@@H](O)[C@H]2O)c(=O)n1 [CTP]
[4]
  ΔTm: Fam20A also binds other nucleoside triphosphates including GTP, CTP, and UTP

## Nc1nc2c(ncn2[C@@H]2O[C@H](COP(=O)(O)OP(=O)(O)OP(=O)(O)O)[C@@H](O)[C@H]2O)c(=O)[nH]1 [GTP]
[4]
  ΔTm: Fam20A also binds other nucleoside triphosphates including GTP, CTP, and UTP

## O=c1ccn([C@@H]2O[C@H](COP(=O)(O)OP(=O)(O)OP(=O)(O)O)[C@@H](O)[C@H]2O)c(=O)[nH]1 [UTP]
[4]
  ΔTm: Fam20A also binds other nucleoside triphosphates including GTP, CTP, and UTP

B1: Human Fam20A residues 69–529 (domain or fragment, UniProt Q96MK3 69-529, looked up)
chain: T1 sequence (Q96MK3 69-529)
notes: Fam20A, human, residues 69-529, secreted from a modified pI-secSUMOstar vector; the 6xHis-SUMO tag was removed by TEV protease; The only purified Fam20A construct that the methods describe; also called untagged Fam20A; purified Fam20A; source: Hi5 insect cells (baculovirus), conditioned medium, purified (Ni-NTA, Resource Q, Superdex 200); not shown: 6xHis, N-terminal, cleaved; SUMO, N-terminal, …
[5]
  binding result: binds
